Assay results reported in patent publication US20260209249A1, “NOVEL TRICYCLIC COMPOUND AS KRAS G12D INHIBITOR, AND USE THEREOF” (SK Biopharmaceuticals Co., priority 2022, published 2026).
pIC50: −log10 of the molar value.

What was measured:
[1] = system: KRAS G12D mutant pancreatic cancer cell line AsPC-1; assay: Cell viability assay using KRAS G12D mutant cells (AsPC-1, 3D culture, celltiter-glo 3D); format: cell-based; conditions: Homo sapiens, ASPC1, 5th day after compound treatment
Description: Test Example 3: Cell Viability Assay Using KRAS G12D Mutant Cells
The KRAS G12D mutant pancreatic cancer cell line AsPC-1 was obtained from the Korean Cell Line Bank (KCLB) and maintained in 100-mm dishes or T75 (75 cm^2) flasks using RPM11640+10% fetal bovine serum (FBS)+1% Penicillin-Streptomycin medium. The cells were cultured at 37° C. with 5% CO2. The number of viable cells was counted using Countess (Invitrogen).
When AsPC-1 cells reached 85-100% confluence in the flask, the cells were harvested using 1× trypsin/EDTA solution, and seeded into a 96-well plate for 3D culture at 1000 cells/100 μL/well. The next day, the compounds were diluted ⅕ with DMSO from 10 μM or 50 μM to 0.0001 μM or 0.0006 μM and treated 1:1 (v/v) in the plate where the cells were seeded.
Cell culture was terminated on the 5th day after compound treatment, and cell viability at each concentration was measured using the celltiter-glo 3D cell viability assay kit.
Cell viability assays were normalized to 100% for the DMSO-treated group and expressed as a percentage of the number of viable cells when treated with the compound.
Cell viability %=(average RLU of group treated with test substance−average RLU of untreated group)/(average RLU of group treated with DMSO−average RLU of untreated group)×100
The data were modeled using GraphPad Prism 9 (GraphPad Software) by applying a nonlinear regression curve fit with a four-parameter sigmoidal dose-response curve to determine cell viability as a function of compound concentration. The 50% inhibitory concentration (IC50) corresponds to the concentration at which the curve intersects the midpoint of cell viability. The results of the inhibitory effect of the compounds according to one embodiment of the present application on the viability of KRAS G12D mutant cells are presented in Table 4.

[2] = molecular target: T1, GppNHp-KRAS G12D mutant protein (Homo sapiens, UniProt P01116, G12D); assay: Differential scanning fluorimetry (DSF) binding affinity to GppNHp-KRAS G12D mutant protein; conditions: DSF thermal shift, 10 μM compound, 4 μg KRAS protein, 50 mM HEPES (pH 7.5)
T1 construct: purchased Daegu Gyeongbuk Medical Innovation Foundation (DGMIF), made to order
Procedure, shortened: (§1)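 Each sample held 4 μg recombinant KRAS G12D (GDP- or GppNHp-bound) and 10 μM compound, incubated 30 min at room temperature before adding 2× SYPRO Orange. The GDP form was run in kit buffer, the GppNHp form in 50 mM HEPES pH 7.5. Melt was 25–99 °C at 0.05 °C/s (580/623 nm), reported as ΔTm versus no compound.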

[3] = molecular target: T2, GDP-KRAS G12D mutant protein (Homo sapiens, UniProt P01116, G12D); assay: Differential scanning fluorimetry (DSF) binding affinity to GDP-KRAS G12D mutant protein; conditions: DSF thermal shift, 10 μM compound, 4 μg KRAS protein
T2 construct: purchased Daegu Gyeongbuk Medical Innovation Foundation (DGMIF), made to order
Procedure, shortened: as §1

[4] = system: ERK phosphorylation (pERK) induced by KRAS G12D mutation; assay: Inhibitory activity against ERK phosphorylation (pERK) induced by KRAS G12D mutation, immunofluorescence assay in AsPC-1 cells; format: cell-based; conditions: Homo sapiens, ASPC1, 3 h drug treatment, pERK (Thr202/Tyr204) signal normalized to DAPI
Procedure, shortened: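 AsPC-1 cells attached 16 h, then treated 3 h with 3-fold dilutions from 10 μM top. Fixed, permeabilized, immunostained for pERK (Thr202/Tyr204) with Alexa 488 secondary; high-content imaging, signal normalized to DAPI and to DMSO, IC50 from four-parameter fit.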

| SMILES | pIC50 [1] | GppNHp-KRAS G12D (ΔTmD, ° C.) [2] [°C] | GDP-KRAS G12D (ΔTmD, ° C.) [3] [°C] | pIC50 [4] |
| --- | --- | --- | --- | --- |
| C#Cc1c(F)ccc2cc(O)cc(-c3cc4nc(OC[C@@]56CCCN5C[C@H](F)C6)nc(N5C[C@H]6CC[C@@H](C5)N6)c4c4cn(C)nc34)c12 [Example 69, 4-(9-((1R,5S)-3,8-diazabicyclo[3.2.1]octan-3-yl)-7-(((2R,7aS)-2-fluorotetrahydro-1H-pyrrolizin-7a(5H)-yl)methoxy)-2-methyl-2H-pyrazolo[4,3-f]quinazolin-4-yl)-5-ethynyl-6-fluoronaphthalen-2-ol] | 6.72 | 7.24 | 11.68 | 6.77 |
| C#Cc1c(F)ccc2cc(O)cc(-c3c(F)c4nc(OC[C@@]56CCCN5CC(=C(F)F)C6)nc(N5C[C@H]6CC[C@@H](C5)N6)c4c4cn(C)nc34)c12 [Example 90, 4-(9-((1R,5S)-3,8-diazabicyclo[3.2.1]octan-3-yl)-7-(((S)-2-(difluoromethylene)tetrahydro-1H-pyrrolizin-7a(5H)-yl)methoxy)-5-fluoro-2-methyl-2H-pyrazolo[4,3-f]quinazolin-4-yl)-5-ethynyl-6-fluoronaphthalen-2-ol] | 8.40 | 11.38 | 16.27 | 8.30 |
| Cn1cc2c(n1)c(-c1cc(O)cc3ccc(F)c(F)c13)c(F)c1nc(OC[C@@]34CCCN3C[C@H](F)C4)nc(N3C[C@H]4CC[C@@H](C3)N4)c12 [Example 95, 4-(9-((1R,5S)-3,8-diazabicyclo[3.2.1]octan-3-yl)-5-fluoro-7-(((2R,7aS)-2-fluorotetrahydro-1H-pyrrolizin-7a(5H)-yl)methoxy)-2-methyl-2H-pyrazolo[4,3-f]quinazolin-4-yl)-5,6-difluoronaphthalen-2-ol] | 6.58 | 7.54 | 11.83 | 7.09 |
| C#Cc1c(F)ccc2cc(O)cc(-c3c(F)c4nc(OC[C@@]56CC[C@@H](COC)N5CC(=C)C6)nc(N5C[C@H]6CC[C@@H](C5)N6)c4c4cn(C)nc34)c12 [Example 96, 4-(9-((1R,5S)-3,8-diazabicyclo[3.2.1]octan-3-yl)-5-fluoro-7-(((5S,7aS)-5-(methoxymethyl)-2-methylenetetrahydro-1H-pyrrolizin-7a(5H)-yl)methoxy)-2-methyl-2H-pyrazolo[4,3-n]quinazolin-4-yl)-5-ethynyl-6-fluoronaphthalen-2-ol] | 7.96 | 10.64 | 15.09 | 7.70 |
| C#Cc1c(F)ccc2cc(N)cc(-c3cc4nc(OC[C@@]56CCCN5C/C(=C\F)C6)nc(N5C[C@H]6CC[C@@H](C5)N6)c4c4cn(C)nc34)c12 [Example 74, 4-(9-((1R,5S)-3,8-diazabicyclo[3.2.1]octan-3-yl)-7-(((S,Z)-2-(fluoromethylene)tetrahydro-1H-pyrrolizin-7a(5H)-yl)methoxy)-2-methyl-2H-pyrazolo[4,3-f]quinazolin-4-yl)-5-ethynyl-6-fluoronaphthalen-2-amine] | 6.96 | 5.30 | 7.82 | 6.84 |
| C#Cc1c(F)ccc2cc(O)cc(-c3cc4nc(OCC5(CN6CCC7(CC6)CC7(F)F)CC5)nc(N5C[C@H]6CC[C@@H](C5)N6)c4n4ccnc34)c12 [Example 9, 4-(1-((1R,5S)-3,8-diazabicyclo[3.2.1]octan-3-yl)-3-((1-((1,1-difluoro-6-azaspiro[2.5]octan-6-yl)methyl)cyclopropyl)methoxy)imidazo[1′,2′:1,6]pyrido[3,2-d]pyrimidin-6-yl)-5-ethynyl-6-fluoronaphthalen-2-ol] | 7.30 | 3.39 | 8.87 | 6.78 |
| C#Cc1c(F)ccc2cc(O)cc(-c3cc4nc(OCC5(CN6CCOC[C@H]6C)CC5)nc(N5C[C@H]6CC[C@@H](C5)N6)c4n4ccnc34)c12 [Example 8, 4-(1-((1 R,5S)-3,8-diazabicyclo[3.2.1]octan-3-yl)-3-((1-(((R)-3-methylmorpholino)methyl)cyclopropyl)methoxy)imidazo[1′,2′:1,6]pyrido[3,2-d]pyrimidin-6-yl)-5-ethynyl-6-fluoronaphthalen-2-ol] | 7.30 | 3.39 | 9.02 | 6.83 |
| C#Cc1c(F)ccc2cc(O)cc(-c3c(F)c4nc(OCC5(CN6CCC7(CC6)CC7(F)F)CC5)nc(N5C[C@H]6CC[C@@H](C5)N6)c4c4cn(C)nc34)c12 [Example 87, 4-(9-((1R,5S)-3,8-diazabicyclo[3.2.1]octan-3-yl)-7-((1-((1,1-difluoro-6-azaspiro[2.5]octan-6-yl)methyl)cyclopropyl)methoxy)-5-fluoro-2-methyl-2H-pyrazolo[4,3-f]quinazolin-4-yl)-5-ethynyl-6-fluoronaphthalen-2-ol] | 7.96 | 8.86 | 14.94 | 8.40 |
| Cn1cc2c(n1)c(-c1cc(O)cc3ccc(F)c(F)c13)c(F)c1nc(OC[C@@]34CCCN3C/C(=C\F)C4)nc(N3C[C@H]4CC[C@@H](C3)N4)c12 [Example 86, 4-(9-((1R,5S)-3,8-diazabicyclo[3.2.1]octan-3-yl)-5-fluoro-7-(((S,Z)-2-(fluoromethylene)tetrahydro-1H-pyrrolizin-7a(5H)-yl)methoxy)-2-methyl-2H-pyrazolo[4,3-f]quinazolin-4-yl)-5,6-difluoronaphthalen-2-ol] | 7.32 | 10.69 | 13.07 | 7.54 |
| C#Cc1c(F)ccc2cc(O)cc(-c3cc4nc(OC[C@@]56CCCN5C/C(=C\F)C6)nc(N5[C@@H]6CC[C@H]5CNC6)c4n4ccnc34)c12 [Example 23, 4-(1-((1R,5S)-3,8-diazabicyclo[3.2.1]octan-8-yl)-3-(((S,Z)-2-(fluoromethylene)tetrahydro-1H-pyrrolizin-7a(5H)-yl)methoxy)imidazo[1′,2′:1,6]pyrido[3,2-d]pyrimidin-6-yl)-5-ethynyl-6-fluoronaphthalen-2-ol] | 7.62 | 6.94 | 9.90 | 7.60 |
| C#Cc1c(F)ccc2cc(N)cc(-c3cc4nc(OC[C@@]56CCCN5C/C(=C\F)C6)nc(N5[C@@H]6CC[C@H]5CNC6)c4n4ccnc34)c12 [Example 38, 4-(1-((1R,5S)-3,8-diazabicyclo[3.2.1]octan-8-yl)-3-(((S,Z)-2-(fluoromethylene)tetrahydro-1H-pyrrolizin-7a(5H)-yl)methoxy)imidazo[1′,2′:1,6]pyrido[3,2-d]pyrimidin-6-yl)-5-ethynyl-6-fluoronaphthalen-2-amine] | 7.92 | 6.65 | 9.61 | 7.82 |
| C#Cc1c(F)ccc2cc(O)cc(-c3cc4nc(OC[C@]56CC(=C)CN5C[C@@H](F)C6)nc(N5CC6CCC(C5)N6)c4n4ccnc34)c12 [Example 39, 4-(1-((1R,5S)-3,8-diazabicyclo[3.2.1]octan-8-yl)-3-(((2S,7aR)-2-fluoro-6-methylenetetrahydro-1H-pyrrolizin-7a(51H)-yl)methoxy)imidazo[1′,2′:1,6]pyrido[3,2-d]pyrimidin-6-yl)-5-ethynyl-6-fluoronaphthalen-2-ol] | 7.04 | 5.61 | 8.87 | 7.12 |
| C#Cc1c(F)ccc2cc(N)cc(-c3cc4nc(OC[C@@]56CCCN5C[C@H](F)C6)nc(N5[C@@H]6CC[C@H]5CNC6)c4n4ccnc34)c12 [Example 14, 4-(1-((1R,5S)-3,8-diazabicyclo[3.2.1]octan-8-yl)-3-(((2R,7aS)-2-fluorotetrahydro-1H-pyrrolizin-7a(5H)-yl)methoxy)imidazo[1′,2′:1,6]pyrido[3,2-d]pyrimidin-6-yl)-5-ethynyl-6-fluoronaphthalen-2-amine] | 7.28 | 4.73 | 7.98 | 7.12 |
